Assay results reported in PMC8026785, “The pharmacokinetics of [^18F]UCB-H revisited in the healthy non-human primate brain” (EJNMMI Research, 2021).
“And” between values parts separate entries of the source, which are not always exact repeats. Equal values may be shown once.

Target: T1, SV2A (Macaca fascicularis, UniProt Q4R4X3)
T1 construct: The current study evaluates [^18F]UCB-H pharmacokinetics in healthy NHPs; from tissue; host or cells: brain of living healthy cynomolgus monkeys (in vivo PET)
Assay: Brain PET kinetic modelling (1TCM, 2TCM, 2TCM-c, Logan), test-retest
Format: in vivo, cynomolgus monkeys (Macaca fascicularis)
Experimental: All four non-human primates (NHP) underwent a 2-h (2 h) test and retest PET scan; two NHP underwent an additional 4-h (4 h) retest PET scan. Three NHP underwent one 4-h (4 h) displacement PET scan. Arterial blood sampling was performed during test and retest scans with PET imaging spaced by at least 3 weeks between each scan. To this end, the femoral artery opposite to the saphenous vein used for radioligand injection was cannulated. For the 2-h (2 h) scans, we collected in total 28 blood samples of 1 mL: 16 samples during the first 5 min followed by […] every 5 min and […] every 10 min. For the 4 h scans, we collected an additional 6 samples every 20 min during the last two hours (34 samples in total). Larger samples (2 – 3 mL) were collected at 5, 15, 30, 60, 90, 120 min (2 h) and at 180, 240 min (4 h) for metabolite analysis. Displacement of [^18F]UCB-H was done by intravenous (IV) administration 90 min after [^18F]UCB-H injection of a bolus of 30 mg/kg LEV, or of 80 µg/kg (≈250 nmol/kg) or 5 mg/kg (≈15 µmol/kg) of cold [^19F]-UCB-H. Full experimental design of all NHP is outlined in Additional file 1: Table 1.
PET imaging was performed on the microPET FOCUS220 (Siemens) under standard anesthesia and monitoring procedures. Data acquisition started with the IV bolus injection of [^18F]UCB-H (32.9 ± 1.0 MBq/kg, 0.35 ± 0.07 µg/kg). Dynamic PET images were reconstructed using standard OSEM-2D algorithms while correcting for radioactive decay, scatter, attenuation and detectors inhomogeneity, which were measured prior to PET scanning using respectively ^57Co and ^68Ge external sources.
PET image analysis was performed using PMOD software version 3.8 (PMOD Technologies Ltd., Zurich, Suisse). After individual co-registration of PET-MR images, a cynomolgus atlas published by Ballanger and coworkers was normalized to PET images to extract time activity curves in different brain regions. Volumes of interest (VOI) were cerebral white matter (16.7 cm^3), striatum (0.24 cm^3), thalamus (0.89 cm^3), cerebellum (3.83 cm^3), frontal—(2.50 cm^3), parietal—(5.35 cm^3), and temporal (8.22 cm^3) cortex, and whole brain (72.2 cm^3) as a composite region of all regions in the atlas. [^18F]UCB-H pharmacokinetics were evaluated by analyzing the time activity curves of the test- and retest scans using 1- and 2-tissue compartment models (unconstrained and constrained with global K1/k2 coupled fit across all regions, further referred to as 2TCM and 2TCM-c), and Logan graphical analysis with a fixed t* at 60 min [33] using the arterial plasma input function corrected for radio-metabolites to derive the volume of distribution in each region. Percentage standard error (%SE) was estimated from the theoretical parameter covariance matrix. Only reliable estimates (%SE less than 25%) were included in the current analyses. For the three drug studies, percent displacement of the total activity in the whole brain was estimated relative to an average baseline constructed from the two 4 h baseline studies. Briefly, Standardized Uptake Value (SUV) time activity curves (TACs) were calculated for the two baseline and the three displacement studies. Then, each curve was normalized to the SUV at t = 90 min, corresponding to the timeframe immediately before the administration of the drugs in the displacement studies. Baseline curves were averaged and the percent displacement of total activity was calculated as (baseline-displacement)/baseline at a given time post drug administration (see “Results”).
Statistical analysis was performed using R software (version 3.3.1.). Plasma, intact parent fraction and time activity curves were statistically compared between subjects using a one-factor variance analysis. Absolute Test–Retest variability (aTRV) of PET quantification parameters was calculated as ABS(test—retest) / AVERAGE(test, retest). […]

[1] = Parietal Cortex, Retest, individual NHP
[2] = Parietal Cortex, Test, individual NHP
[3] = Striatum, Retest, individual NHP

T1 sequence (Q4R4X3 whole entry): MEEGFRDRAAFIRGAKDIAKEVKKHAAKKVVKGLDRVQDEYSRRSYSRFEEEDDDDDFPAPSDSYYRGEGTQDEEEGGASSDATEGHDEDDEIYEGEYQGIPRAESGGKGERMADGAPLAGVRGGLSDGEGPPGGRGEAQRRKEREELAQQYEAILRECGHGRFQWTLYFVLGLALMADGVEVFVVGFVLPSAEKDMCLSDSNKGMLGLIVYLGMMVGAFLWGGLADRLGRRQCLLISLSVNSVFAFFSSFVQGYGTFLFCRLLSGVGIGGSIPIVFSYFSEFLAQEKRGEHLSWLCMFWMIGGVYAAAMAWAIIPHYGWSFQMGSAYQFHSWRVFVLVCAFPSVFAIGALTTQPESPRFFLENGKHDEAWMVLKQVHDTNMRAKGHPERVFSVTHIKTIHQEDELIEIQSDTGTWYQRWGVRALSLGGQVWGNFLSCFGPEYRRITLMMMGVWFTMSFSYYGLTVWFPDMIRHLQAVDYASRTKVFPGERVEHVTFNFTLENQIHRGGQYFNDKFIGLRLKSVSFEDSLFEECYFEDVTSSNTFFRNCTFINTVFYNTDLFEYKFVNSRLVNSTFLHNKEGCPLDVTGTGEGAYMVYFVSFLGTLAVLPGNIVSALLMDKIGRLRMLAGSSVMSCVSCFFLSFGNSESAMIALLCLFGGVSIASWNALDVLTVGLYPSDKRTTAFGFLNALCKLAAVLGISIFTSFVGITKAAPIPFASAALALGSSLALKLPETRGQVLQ

## O=C1C[C@H](c2cc(F)c(F)c(F)c2)CN1Cc1ccncc1[18F] [[^18F]UCB-H]
Frontal cortex, Retest, mean
  VT (2TCM): 13.1 mL/cm^3
  VT (2TCM-c): 14.7 mL/cm^3
  VT (Logan (t* = 60)): 14.8 mL/cm^3
  k3/k4 (BPND) (2TCM-c): 1.32
Frontal cortex, Test, mean
  VT (1TCM): 13.8 mL/cm^3
  VT (2TCM): 16.3 mL/cm^3
  VT (2TCM-c): 14.8 mL/cm^3
  VT (Logan (t* = 60)): 15.0 mL/cm^3
  k3/k4 (BPND) (2TCM-c): 1.25
Logan
  ICC of VT, overall: ~ 0.6
  aTRV of VT, overall: ~ 11% and ~ 12%
MA1, data not shown
  aTRV of VT: ~ 11%
[1]
  K1 (2TCM): 0.42 ml/cm^3 /min and 0.32 ml/cm^3 /min and 0.38 ml/cm^3 /min and 0.33 ml/cm^3 /min
  K1 (2TCM-c): 0.44 ml/cm^3 /min and 0.33 ml/cm^3 /min and 0.38 ml/cm^3 /min and 0.34 ml/cm^3 /min
  K1/k2 (2TCM): 13.02 ml/cm^3 and 14.99 ml/cm^3
  K1/k2 (2TCM-c): 4.64 ml/cm^3 and 9.07 ml/cm^3 and 10.70 ml/cm^3 and 7.25 ml/cm^3
  VT (1TCM): 13.99 ml/cm^3 and 16.57 ml/cm^3 and 15.57 ml/cm^3 and 13.26 ml/cm^3
  VT (2TCM): 13.98 ml/cm^3 and 13.26 ml/cm^3
  VT (2TCM-c): 14.02 ml/cm^3 and 18.28 ml/cm^3 and 18.66 ml/cm^3 and 13.26 ml/cm^3
  VT (Logan): 13.75 ml/cm3 and 19.72 ml/cm3 and 15.91 ml/cm3 and 13.60 ml/cm3
  k3/k4 (2TCM-c): 2.02 and 1.04 and 0.78 and 0.83
[2]
  K1 (2TCM): 0.22 ml/cm^3 /min and 0.40 ml/cm^3 /min and 0.41 ml/cm^3 /min and 0.18 ml/cm^3 /min
  K1 (2TCM-c): 0.23 ml/cm^3 /min and 0.41 ml/cm^3 /min and 0.42 ml/cm^3 /min and 0.18 ml/cm^3 /min
  K1/k2 (2TCM): 7.68 ml/cm^3 and 12.37 ml/cm^3 and 12.79 ml/cm^3 and 13.88 ml/cm^3
  K1/k2 (2TCM-c): 4.35 ml/cm^3 and 8.22 ml/cm^3 and 10.99 ml/cm^3 and 7.86 ml/cm^3
  VT (1TCM): 10.65 ml/cm^3 and 17.46 ml/cm^3 and 14.10 ml/cm^3 and 15.09 ml/cm^3
  VT (2TCM): 12.22 ml/cm^3 and 18.71 ml/cm^3
  VT (2TCM-c): 11.12 ml/cm^3 and 17.78 ml/cm^3 and 15.03 ml/cm^3 and 17.47 ml/cm^3
  VT (Logan): 11.83 ml/cm3 and 18.19 ml/cm3 and 15.28 ml/cm3 and 16.49 ml/cm3
  k3/k4 (2TCM): 0.59
  k3/k4 (2TCM-c): 1.56 and 1.38 and 0.37 and 1.00
Parietal cortex
  ICC of 2TCM-c VT: 0.38
  ICC of Logan (t* = 60) VT: 0.75
  aTRV of 2TCM-c VT: 19%
  aTRV of Logan (t* = 60) VT: 12%
Parietal cortex, Retest, mean
  VT (1TCM): 14.8 mL/cm^3
  VT (2TCM): 13.6 mL/cm^3
  VT (2TCM-c): 16.1 mL/cm^3
  VT (Logan (t* = 60)): 15.7 mL/cm^3
  k3/k4 (BPND) (2TCM-c): 1.17
Parietal cortex, Test, mean
  VT (1TCM): 14.3 mL/cm^3
  VT (2TCM): 15.5 mL/cm^3
  VT (2TCM-c): 15.4 mL/cm^3
  VT (Logan (t* = 60)): 15.4 mL/cm^3
  k3/k4 (BPND) (2TCM-c): 1.08
Striatum
  ICC of Logan (t* = 60) VT: 0.67
  aTRV of 2TCM-c VT: 12%
  aTRV of Logan (t* = 60) VT: 11%
[3]
  K1 (2TCM): 0.41 ml/cm^3 /min and 0.54 ml/cm^3 /min and 0.44 ml/cm^3 /min and 0.46 ml/cm^3 /min
  K1 (2TCM-c): 0.42 ml/cm^3 /min and 0.58 ml/cm^3 /min and 0.46 ml/cm^3 /min and 0.47 ml/cm^3 /min
  K1/k2 (2TCM): 11.34 ml/cm^3 and 15.36 ml/cm^3
  K1/k2 (2TCM-c): 7.25 ml/cm^3 and 4.64 ml/cm^3 and 9.07 ml/cm^3 and 10.70 ml/cm^3
  VT (1TCM): 13.04 ml/cm^3 and 14.96 ml/cm^3 and 15.52 ml/cm^3 and 15.75 ml/cm^3
  VT (2TCM): 13.09 ml/cm^3 and 15.01 ml/cm^3
  VT (2TCM-c): 13.08 ml/cm^3 and 15.06 ml/cm^3 and 17.64 ml/cm^3 and 15.26 ml/cm^3
  VT (Logan): 13.39 ml/cm3 and 14.93 ml/cm3 and 18.31 ml/cm3 and 16.14 ml/cm3
  k3/k4 (2TCM-c): 0.80 and 2.25 and 0.97 and 0.45
Striatum, Retest, mean
  VT (1TCM): 14.8 mL/cm^3
  VT (2TCM): 14.1 mL/cm^3
  VT (2TCM-c): 15.3 mL/cm^3
